Measured values published in PubChem BioAssay (NCI).
Several values for one entry are separate records, joined by “and”; a condition that tells them apart may be missing. Equal entries are not always repeated.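 Following 48 hours of exposure in 96-well plates, responses at five concentrations were used to interpolate endpoints linearly. TGI is the concentration that stops growth completely.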

Legend:
Test in all cases: growth of human tumour cells (NCI), 48 h
HOP-92 NSCLC = test system: HOP-92 NSCLC
MOLT-4 leukemia = test system: MOLT-4 leukemia
RXF 393 renal = test system: RXF 393 renal
IGROV1 ovarian = test system: IGROV1 ovarian
UACC-62 melanoma = test system: UACC-62 melanoma
SF-539 CNS = test system: SF-539 CNS
SNB-19 CNS = test system: SNB-19 CNS
A549 NSCLC = test system: A549 NSCLC
UO-31 renal = test system: UO-31 renal
M14 melanoma = test system: M14 melanoma
BT-549 breast = test system: BT-549 breast

SMILES	TGI (HOP-92 NSCLC) [µM]	TGI (MOLT-4 leukemia) [µM]	TGI (RXF 393 renal) [µM]	TGI (IGROV1 ovarian) [µM]	TGI (UACC-62 melanoma) [µM]	TGI (SF-539 CNS) [µM]	TGI (SNB-19 CNS)	TGI (A549 NSCLC) [µM]	TGI (UO-31 renal)	TGI (M14 melanoma) [µM]	TGI (BT-549 breast) [µM]
C[C@@H]1C(O)CC[C@H](C)C12CC=CC2=O (some centres not stated)	> 100	> 100	> 100	> 100	> 100	> 100	> 100 µM	> 100	> 100 µM		
COc1nc(=O)n(C2CC(N=[N+]=[N-])C(CO)O2)cc1C (configuration not stated)	> 100	> 100		> 100	> 100	> 100	> 100 µM	> 100	> 100 µM	> 100	> 100
Cc1ccc2[nH]c3c(C)c4ccncc4c(C)c3c2c1	3.09	1.95	0.513	2.44	3.26	2.68	2.62 µM	2.63	3.03 µM	3.29	
COc1ccc2c(c1)CC[C@@H]1C2CC[C@]2(C)C(=O)NC(=O)CC12 (some centres not stated)	> 100	> 100		> 100	> 100	> 100	> 100 µM	> 100	> 100 µM	> 100	
CSc1c(C#N)c2n(c3ccccc3[n+]2C)c2ncccc12		> 100	37.2	> 100	38.9		> 100 µM	77	50.1 µM	52.6	70.5
CCN(CC)CCCNC(=O)Cc1ccccc1Nc1c(Cl)cccc1Cl		28	30.6	36.5	29.5	28.7	31.8 µM	36.2	23.8 µM	7.88	
CC(=O)c1cccc(NC2C(N)C(NC(=O)N(C)C)(C(C)O)C(C)(O)C2(O)COC(=O)c2c(C)cccc2O)c1 (configuration not stated)		0.835			0.119	< 0.001	0.0992 µM and 0.936 µM	0.347	0.194 µM and 0.257 µM	0.3	0.012
Cc1ccc(/C=N/Nc2ncccn2)s1	> 100		> 100	> 100	> 100	> 100	> 100 µM	> 100	> 100 µM	> 100	
COc1ccc(C2S/C(=C\c3ccc(OC)cc3OC)C(=O)N2NC(=O)Cc2ccccc2)cc1 (configuration not stated)	> 100	> 100	> 100	> 100	> 100	> 100		> 100	> 100 µM	> 100	
CSC(=NCCN=C(NS(=O)(=O)c1ccc(Cl)cc1)SC)NS(=O)(=O)c1ccc(Cl)cc1	58	> 100		> 100	> 100	> 100	> 100 µM		> 100 µM	> 100	
Cc1nc(-c2nc([N+](=O)[O-])c([N+](=O)[O-])[nH]2)cs1	> 100	> 100	> 100	> 100	> 100	> 100	> 100 µM	> 100	> 100 µM	> 100	
CC(=O)c1cn(-c2ccc(Cl)cc2)c(=O)c2c(N)n[nH]c12		> 100	> 100	> 100	> 100		> 100 µM		> 100 µM		> 100
